Measured values published in patent US8435987B2, “Pyrazolo-pyridinone and pyrazolo-pyrazinone compounds as P38 modulators and methods of use thereof” (Amgen Inc., priority 2007, dated 2013).
pIC50: −log10 of the molar value. Read-outs that look alike come from different tables or passages of the source. Each block holds one compound with its values, some of them ahead of it.

Key:
[1] = tested on: secreted IL-8 by whole blood activated with TNF-α; experiment: Inhibition of TNF-α induced IL-8 in 50% human whole blood; format: cell-based
Method: Inhibition of TNF-α Induced IL-8 in 50% Human Whole Blood
Test compounds were evaluated in vitro for the ability to inhibit the production of secreted IL-8 by whole blood activated with TNF-α. Fresh human whole blood was obtained from healthy, non-medicated volunteers in sodium heparin tubes.
Compound Dilution—Assay Procedure
Test compounds are serially diluted 1:3 in DMSO and then diluted 1:250 into R10 (RPMI 1640, 10% human serum AB, 1× pen/strep/glutamine) to the 4× working concentration to be used in the assay. 100 ul heparinized whole blood is plated into wells of 96 well flat bottom plates. 50 ul of either 4× compound or DMSO control (Final DMSO concentration is 0.1%) are added to the appropriate wells. Plates are incubated for 1 hour at 37 degrees Celsius. 50 ul of 4× TNF-α (4 nM TNF-α, for a final concentration of 1 nM) or control (media alone) is added to the appropriate wells (Total volume=200 ul). Plates are incubated overnight (16-18 hours). 100 ul of supernatant is collected and stored in 96-well round bottom polypropylene plates at −80 degrees Celsius or assayed immediately for IL-8.
Cytokines are measured on antibody (Ab) sandwich ECL based 96-well detection plates. 20 ul of supernatant are added to plate and plate is sealed and shaken at RT for 1 hour. 130 ul of detection Ab cocktail is added and plates are sealed and shaken for 1 hour in the dark at RT. Plates are read on MSD Sector HTS instrument. Data are analyzed and IC50 values generated using Activity Base and Xl-fit programs.

[2] = tested on: TNF-α secretion by LPS-treated THP1 cells; experiment: Lipopolysaccharide-activated THP1 cell TNF production assay; format: cell-based; conditions: Homo sapiens, THP-1, 3 hours, read-out: IC50 in the THP-1 cellular TNF production assay
Method: Lipopolysaccharide-Activated THP1 Cell TNF Production Assay
THP1 cells were resuspended in fresh THP1 media (RPMI 1640, 10% heat-inactivated FBS, 1×PGS, 1×NEAA, plus 30 μM βME) at a concentration of 1.5×10^6 cells per mL. One hundred microliters of cells per well were plated in a polystyrene 96-well tissue culture plate. 1.5 micrograms per mL of bacterial LPS was prepared in THP1 media and transferred to the first 11 columns of a 96-well polypropylene plate. Column 12 contained only THP1 media for the LO control. Compounds were dissolved in 100% DMSO and serially diluted 3 fold in a polypropylene 96-well microtiter plate (drug plate). Columns 6 and 12 were reserved as controls (HI controls and LO controls respectively) and contained only DMSO. 10 μL of LPS followed by one microliter of inhibitor compound from the drug plate was transferred to the cell plate. The treated cells were induced to synthesize and secrete TNF-α in a 37° C. humidified incubator with 5% CO2 for 3 hours. Fifty microliters of conditioned media was transferred to a 96-well MULTI-ARRAY™ 96-well small spot plate—custom coated with MAB610 containing 100 μL of 2× Read Buffer P supplemented with 0.34 nM AF210NA polyclonal Ab labeled with ruthenium (MSD-Sulfo-TAG™—NHS ester). After an overnight incubation at room temperature with shaking, the reaction was read on the Sector Imager™ 6000. […] The amount of secreted TNF-α in the presence of AMG compounds compared with that in the presence of DMSO vehicle alone (HI control) was calculated using the formula: % control (POC)=(cpd−average LO)/(average HI−averageLO)*100. Data (consisting of POC and inhibitor concentration in μM) was fitted to a 4-parameter equation (y=A+((B−A)/(1+((x/C)^D))), where A is the minimum y (POC) value, B is the maximum y (POC), C is the x (cpd concentration) at the point of inflection and D is the slope factor) using a Levenburg-Marquardt non-linear regression algorithm.

recombinant human p38α = recombinant human p38α (Homo sapiens, UniProt Q16539); experiment: Purified and activated recombinant human p38α HTRF assay; format: biochemical; conditions: 1 nM p38α, 50 μM ATP, 100 nM GST-ATF2-Avitag, read-out: p3a IC550
Method: Purified and Activated Recombinant Human p38α Assay
• Kinase Reaction Buffer: Kinase reaction buffer for p38α HTRF assays consists of 50 mM Tris-pH 7.5, 5 mM MgCl2, 0.1 mg/mL BSA, 100 μM Na3VO4 and 0.5 mM DTT. • HTRF Detection Buffer: HTRF detection buffer contains 100 mM HEPES-pH 7.5, 100 mM NaCl, 0.1% BSA, 0.05% Tween-20, and 10 mM EDTA. • Serial Dilution of Compounds: Compounds were dissolved in 100% DMSO and serially diluted (3 fold, 10 point) in a polypropylene 96-well microtiter plate (drug plate). The final starting concentration of compounds in the p38a enzymatic assays was 1 μM. Columns 6 and 12 (HI controls and LO controls respectively) in the drug plate were reserved as controls and contained only DMSO. • Kinase Reaction: The p38α kinase reactions were carried out in a polypropylene 96-well black round bottom assay plate in total volume of 30 μL kinase reaction buffer. Appropriate concentration of purified and activated enzyme (recombinant human) was mixed with indicated concentration of ATP and 100 nM GST-ATF2-Avitag, in the presence or absence (HI control) of Compound. See table below for actual concentrations. In the absence of substrate, the background was measured as LO control. The reaction was allowed to incubate for 1 hour at RT. • Assay Reagent Concentrations: The final reagent concentrations were 1 nM p38α and 50 μM ATP. […] After 60 minutes incubation at room temperature, the assay plate was read in a Discovery Plate Reader. The wells were excited with coherent 320 nm light and the ratio of delayed ([…] post excitation) emissions at […] (native europium fluorescence) and 665 nm (europium fluorescence transferred to allophycocyanin—an index of substrate phosphorylation) was determined (Park et al, 1999). • Data Analysis: The proportion of substrate phosphorylated in the kinase reaction in the presence of compound compared with that phosphorylated in the presence of DMSO vehicle alone (HI control) was calculated using the formula: % control (POC)=(compound−average LO)/(average HI−average LO)*100. Data (consisting of POC and inhibitor concentration in μM) was fitted to a 4-parameter equation (y=A+((B−A)/(1+((x/C)AD))), where A is the minimum y (POC) value, B is the maximum y (POC), C is the x (compound concentration) at the point of inflection and D is the slope factor, using a Levenburg-Marquardt non-linear regression algorithm.
The inhibition constant (Ki) of the inhibitor was estimated from the IC50 (compound concentration at the point of inflection C) using the Cheng-Prussof equation: Ki=IC50/(1+S/Km), where S is the ATP substrate concentration, and Km is the Michaelis constant for ATP as determined experimentally. All results were expressed as the mean± the standard error of the mean. Data acquisition and non-linear regression algorithms were performed using Activity Base v5.2 and XL-fit software v4.1 respectively. All data was archived using Activity Base v5.2 software.

[3] = 50% human whole blood, TNF-α (1 nM final) induced IL-8, 16-18 hours, read-out: WB TNF/IL8 IC50
[4] = Homo sapiens, read-out: IC50, TNF-α induced IL-8 in 50% human whole blood

Sequence of recombinant human p38α (Q16539 whole entry): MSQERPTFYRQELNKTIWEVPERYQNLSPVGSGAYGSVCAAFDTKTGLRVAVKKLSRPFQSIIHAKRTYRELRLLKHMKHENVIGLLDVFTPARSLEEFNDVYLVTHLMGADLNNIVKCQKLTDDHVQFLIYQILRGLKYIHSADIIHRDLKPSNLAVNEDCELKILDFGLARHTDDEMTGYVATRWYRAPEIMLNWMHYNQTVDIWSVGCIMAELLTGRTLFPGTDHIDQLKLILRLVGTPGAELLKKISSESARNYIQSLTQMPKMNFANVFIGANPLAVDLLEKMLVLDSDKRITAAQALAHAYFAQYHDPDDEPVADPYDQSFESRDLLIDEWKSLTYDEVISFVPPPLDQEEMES

Structure (SMILES): CCn1c(=O)c(-c2c(C)ccc3c(NC4CC4)noc23)cc2cnn(-c3ccccc3F)c21 [Example 7, 5-(3-(cyclopropylamino)-6-methyl-1,2-benzisoxazol-7-yl)-7-ethyl-1-(2-fluorophenyl)-1,7-dihydro-6H-pyrazolo[3,4-b]pyridin-6-one]
pIC50 [2]: ≥ 7.00 | pIC50 [1, 3]: 8.89 | pIC50 [1, 4]: ≥ 7.00 | pIC50 (recombinant human p38α): 8.70

Structure (SMILES): CNc1noc2c(-c3nc4cnn(-c5ccc(F)cc5F)c4n(C)c3=O)c(C)ccc12 [Example 2, 1-(2,4-difluorophenyl)-7-methyl-5-(6-methyl-3-(methylamino)benzo[d]isoxazol-7-yl)-1H-pyrazolo[4,3-b]pyrazin-6(7H)-one]
pIC50 [2]: ≥ 7.00 | pIC50 [1, 4]: ≥ 7.00 | pIC50 (recombinant human p38α): 7.55

Structure (SMILES): Cc1ccc2c(NC3CC3)noc2c1-c1cc2cnn(-c3cc(F)ccc3F)c2n(C)c1=O [Example 6, 5-(3-(cyclopropylamino)-6-methyl-1,2-benzisoxazol-7-yl)-1-(2,5-difluorophenyl)-7-methyl-1,7-dihydro-6H-pyrazolo[3,4-b]pyridin-6-one]
pIC50 [2]: ≥ 7.00 | pIC50 [1, 3]: 8.80 | pIC50 [1, 4]: ≥ 7.00 | pIC50 (recombinant human p38α): 8.05

Other lines, results leading:

pIC50 [1, 3]: 8.05
Structure (SMILES): Cc1ccc2c(NC3CC3)noc2c1-c1nc2cnn(-c3ccc(F)cc3F)c2n(C)c1=O [Example 10, 5-(3-(cyclopropylamino)-6-methyl-1,2-benzisoxazol-7-yl)-1-(2,4-difluorophenyl)-7-methyl-1,7-dihydro-6H-pyrazolo[3,4-b]pyrazin-6-one]

pIC50 [2]: ≥ 7.00 | pIC50 [1, 3]: 8.74 | pIC50 [1, 4]: ≥ 7.00 | pIC50 (recombinant human p38α): 8.36
Structure (SMILES): Cc1ccc2c(NC3CC3)noc2c1-c1cc2cnn(-c3ccc(F)cc3F)c2n(C)c1=O [Example 8, 5-(3-(cyclopropylamino)-6-methyl-1,2-benzisoxazol-7-yl)-1-(2,4-difluorophenyl)-7-methyl-1,7-dihydro-6H-pyrazolo[3,4-b]pyridin-6-one]

pIC50 [1, 3]: 8.10
Structure (SMILES): Cc1ccc2c(NC3CC3)noc2c1-c1nc2cnn(-c3c(F)cccc3F)c2n(C)c1=O [Example 9, 5-(3-(cyclopropylamino)-6-methyl-1,2-benzisoxazol-7-yl)-1-(2,6-difluorophenyl)-7-methyl-1,7-dihydro-6H-pyrazolo[3,4-b]pyrazin-6-one]
